“And” between values parts separate entries of the source, which are not always exact repeats. Equal values may be shown once.
Columns and labels:
Experiment in all cases: Competitive isoTOP-ABPP, cell lysates
Format in all cases: binding
XPO1 C528 (O14980) = XPO1 C528 (O14980) (Homo sapiens, UniProt O14980)
PDIA6 C55 (Q15084) = target: T1, PDIA6 C55 (Q15084) (Homo sapiens, UniProt Q15084)
T1 sequence (Q15084 20-440): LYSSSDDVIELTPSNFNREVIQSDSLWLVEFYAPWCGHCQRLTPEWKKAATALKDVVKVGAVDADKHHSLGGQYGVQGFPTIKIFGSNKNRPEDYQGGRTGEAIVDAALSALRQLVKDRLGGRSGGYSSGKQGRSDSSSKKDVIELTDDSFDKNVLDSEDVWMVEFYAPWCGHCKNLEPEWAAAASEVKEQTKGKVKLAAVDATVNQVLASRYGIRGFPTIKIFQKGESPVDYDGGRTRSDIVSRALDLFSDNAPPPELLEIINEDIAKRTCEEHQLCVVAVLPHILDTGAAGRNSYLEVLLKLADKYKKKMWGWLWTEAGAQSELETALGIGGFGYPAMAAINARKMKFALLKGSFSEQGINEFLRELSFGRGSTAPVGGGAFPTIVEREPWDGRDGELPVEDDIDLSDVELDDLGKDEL

UBE2L3 C86 (P68036) = UBE2L3 C86 (P68036) (Homo sapiens, UniProt P68036); conditions: for isoTOP-ABPP reactivity ratio, P68036_C86: 500 μm
PDE12 C108 (Q6L8Q7) = target: T2, PDE12 C108 (Q6L8Q7) (Homo sapiens, UniProt Q6L8Q7); conditions: for isoTOP-ABPP reactivity ratio, Q6L8Q7_C108: 500 μm
T2 sequence (Q6L8Q7 43-609): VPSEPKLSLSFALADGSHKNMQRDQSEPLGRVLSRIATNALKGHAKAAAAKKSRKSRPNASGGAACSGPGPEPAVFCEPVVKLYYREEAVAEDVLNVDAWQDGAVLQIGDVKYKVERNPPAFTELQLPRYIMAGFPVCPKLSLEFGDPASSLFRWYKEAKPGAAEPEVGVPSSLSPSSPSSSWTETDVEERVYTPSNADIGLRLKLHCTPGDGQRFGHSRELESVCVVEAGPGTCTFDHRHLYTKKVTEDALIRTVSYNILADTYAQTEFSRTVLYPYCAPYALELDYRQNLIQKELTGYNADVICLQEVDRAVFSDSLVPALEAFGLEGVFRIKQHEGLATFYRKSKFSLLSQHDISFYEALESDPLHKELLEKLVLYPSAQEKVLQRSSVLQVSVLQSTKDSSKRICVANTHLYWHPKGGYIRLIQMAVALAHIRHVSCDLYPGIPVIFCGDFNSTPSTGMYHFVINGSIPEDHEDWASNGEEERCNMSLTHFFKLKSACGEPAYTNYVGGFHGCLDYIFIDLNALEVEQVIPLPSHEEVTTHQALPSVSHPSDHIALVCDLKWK

SAMHD1 C522 (Q9Y3Z3) = SAMHD1 C522 (Q9Y3Z3) (Homo sapiens, UniProt Q9Y3Z3)
GNB2L1 C182 (P63244) = GNB2L1 C182 (P63244) (Homo sapiens, UniProt P63244); conditions: for isoTOP-ABPP reactivity ratio, P63244_C182: 500 μm
ADA C75 (P00813) = target: T3, ADA C75 (P00813) (Homo sapiens, UniProt P00813); conditions: for isoTOP-ABPP reactivity ratio, P00813_C75: 500 μm, in-vitro_ramos
T3 sequence (P00813 1-363): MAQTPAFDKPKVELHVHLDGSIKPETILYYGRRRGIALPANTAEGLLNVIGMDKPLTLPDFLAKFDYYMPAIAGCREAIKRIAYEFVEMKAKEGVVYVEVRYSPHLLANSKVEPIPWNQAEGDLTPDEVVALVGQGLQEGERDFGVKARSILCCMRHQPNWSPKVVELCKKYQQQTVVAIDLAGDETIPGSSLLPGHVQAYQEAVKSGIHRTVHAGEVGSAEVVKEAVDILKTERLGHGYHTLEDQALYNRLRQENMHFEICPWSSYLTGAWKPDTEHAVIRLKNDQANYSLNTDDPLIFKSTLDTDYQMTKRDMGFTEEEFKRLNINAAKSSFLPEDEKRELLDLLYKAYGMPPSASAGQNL

Structure (SMILES)	isoTOP-ABPP ratio (reactivity profile), O14980_C528 (XPO1 C528 (O14980); 500 μm in-vitro ramos)	isoTOP-ABPP ratio (reactivity profile), Q15084_C55 (PDIA6 C55 (Q15084); 500 μm in-vitro ramos)	isoTOP-ABPP ratio (reactivity profile), P68036_C86 (UBE2L3 C86 (P68036); 500 μm in-vitro ramos)	isoTOP-ABPP ratio (reactivity profile), Q6L8Q7_C108 (PDE12 C108 (Q6L8Q7); 500 μm in-vitro ramos)	isoTOP-ABPP ratio (reactivity profile), Q9Y3Z3_C522 (SAMHD1 C522 (Q9Y3Z3); 500 μm in-vitro ramos)	isoTOP-ABPP ratio (reactivity profile), P63244_C182 (GNB2L1 C182 (P63244); 500 μm in-vitro ramos)	isoTOP-ABPP ratio (reactivity profile), P00813_C75 (ADA C75 (P00813); 500 μm in-vitro ramos)	isoTOP-ABPP ratio (reactivity profile), O14980_C528 (XPO1 C528 (O14980); 500 μm in-vitro ramos_231)	isoTOP-ABPP ratio (reactivity profile), Q15084_C55 (PDIA6 C55 (Q15084); 500 μm in-vitro ramos_231)	isoTOP-ABPP ratio (reactivity profile), P68036_C86 (UBE2L3 C86 (P68036); 500 μm in-vitro ramos_231)	isoTOP-ABPP ratio (reactivity profile), Q6L8Q7_C108 (PDE12 C108 (Q6L8Q7); 500 μm in-vitro ramos_231)	isoTOP-ABPP ratio (reactivity profile), Q9Y3Z3_C522 (SAMHD1 C522 (Q9Y3Z3); 500 μm in-vitro ramos_231)	isoTOP-ABPP ratio (reactivity profile), P63244_C182 (GNB2L1 C182 (P63244); 500 μm in-vitro ramos_231)	isoTOP-ABPP reactivity ratio, P68036_C86 (UBE2L3 C86 (P68036); in-vitro_ramos)	isoTOP-ABPP reactivity ratio, P63244_C182 (GNB2L1 C182 (P63244); in-vitro_ramos)	isoTOP-ABPP reactivity ratio, P00813_C75 (ADA C75 (P00813))	further results
O=C(/C=C/c1ccccc1)Nc1cc(C(F)(F)F)cc(C(F)(F)F)c1 [compound 26]	0.9	0.9	0.7	1.1	0.9	1.0	0.8	–	–	–	–	–	–	–	–	–	–
CC(C)CCOCCNC(=O)CCl [compound 27]	0.8	1.2	–	1.3	0.9	1.1	1.0	1.2 and 0.9	0.8 and 1.1	1.2 and 0.9	0.5	0.8 and 1.0	1.0 and 0.8	–	–	–	isoTOP-ABPP ratio (reactivity profile), P00813_C75 (ADA C75 (P00813); 500 μm in-vitro ramos_231): 1.1
O=C(CCl)N1CCC(C(O)(c2ccccc2)c2ccccc2)CC1 [compound 20]	4.0	2.0	1.2	–	1.3	1.1	1.5	1.4	1.7	1.1	1.6	2.1	1.4	–	–	–	–
CCN(CC)c1ccc(S(N)(=O)=O)cc1NC(=O)CCl [compound 30]	–	2.2	–	1.1	0.7	1.2	–	–	–	–	–	–	–	1.5	1.6	3.1	isoTOP-ABPP reactivity ratio, Q6L8Q7_C108 (PDE12 C108 (Q6L8Q7); in-vitro_ramos): 1.6
C=CC(=O)Nc1cc(C)c(Br)cc1C [compound 40]	–	–	–	–	–	–	–	–	–	–	–	–	–	0.9	0.6	0.9	isoTOP-ABPP reactivity ratio, Q15084_C55 (PDIA6 C55 (Q15084); 500 μm, in-vitro_ramos_231): 0.8; isoTOP-ABPP reactivity ratio, P68036_C86 (UBE2L3 C86 (P68036); in-vitro_ramos_231): 0.8; isoTOP-ABPP reactivity ratio, Q6L8Q7_C108 (PDE12 C108 (Q6L8Q7); in-vitro_ramos_231): 0.8; isoTOP-ABPP reactivity ratio, Q9Y3Z3_C522 (SAMHD1 C522 (Q9Y3Z3); 500 μm, in-vitro_ramos_231): 0.8; isoTOP-ABPP reactivity ratio, P63244_C182 (GNB2L1 C182 (P63244); in-vitro_ramos_231): 1.0
O=C(CCl)NC12CC3CC(CC(C3)C1)C2 [compound 21]	0.8	2.1	2.0	–	1.4	0.9	1.3	0.9	1.1	1.2	–	–	0.9	–	–	–	–
